Here are results for 23 molecules from patent US9580449B2, “Compositions and methods for the production of pyrimidine and pyridine compounds with BTK inhibitory activity” (Merck Patent GmbH, priority 2011, dated 2017).

The target in one test is full-length human BTK (Homo sapiens (Human), UniProt Q06187). Put plainly: BTK IC50 enzyme assay (microfluidic off-chip mobility shift kinase assay). The format is biochemical. The note with it: incubated for 90 min. at 27 C; read-out: Time Dependent BTK Enzyme Assay IC50. The procedure, abridged:
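Read-out separates phosphorylated peptide product from substrate by charge/mass in a mobility shift format with full-length human BTK.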

A further test addresses BTK (Homo sapiens (Human), UniProt Q06187). Put plainly: Time Dependent Human Whole Blood IC50 assay. The class given is cell-based. As to the method:
Compounds described by embodiments of the present invention were assayed using a human whole blood assay. The data from the same is recorded in Table 2 within the column labeled: “Time Dependent Human Whole Blood BTK Enzyme Assay IC50”.

Another test concerns PBMC. The test can be described thus: Time Dependent PBMC IC50 assay. The class given is cell-based. As for the experimental part:
Compounds described by embodiments of the present invention were assayed using a time dependent PMBC assay.

In the next test the test system is NZB/W F1 mice. Put plainly: Interferon-alpha accelerated systemic lupus erythematosus (SLE) mouse model. The note with it: oral, daily from day 14, 0.1, 0.3, 1, or 3 mg/kg; NZB/W F1 mice with ADV-IFN-α. The class given is in vivo. As for the experimental part: 1-(4-(((6-amino-5-(4-phenoxyphenyl)pyrimidin-4-yl)amino)methyl)piperidin-1-yl)prop-2-en-1-one, designated as “CPD. B”, was evaluated in an interferon-alpha accelerated SLE mouse model. NZB/W F1 mice received i.v. injection at day 0 and day 1 of 10^8 infectious units of adenovirus (ADV-IFN-α) to deliver a transient overexpression on interferon alpha. Oral dosing of the different group treatments was initiated on day 14 and continued daily at 24 hour intervals until the end of the study. Treatment groups consisted of 20% Kleptose HPB in Na-citrate buffer (vehicle) or 0.1, 0.3, 1, or 3 mg/kg of Cpd. […] As shown in Panel 1B Cpd. […] FIG. 2 presents data from another interferon-alpha accelerated SLE experiment in mice. NZB/W F1 mice received i.v. injections at day 0 and day 1 of 10^8 infectious units of adenovirus (ADV-IFN-α) to deliver a transient overexpression on interferon alpha. Oral dosing of the different group treatments (n=10) was initiated on day 14 and continued daily at 24 hour intervals until the end of the study. Treatment groups consisted of 20% Kleptose HPB in Na-citrate buffer (vehicle), 0.1, 0.3, 1, or 3 mg/kg of Cpd. B or Cell Cept®. […] Statistical analysis was performed using Two way ANOVA with Bonferroni post test with all groups compared to vehicle treated group (*=p<0.05, **=p<0.01, ***=p<0.001).

Setting [1] is: human whole blood, read-out: Time Dependent Human Whole Blood BTK Enzyme Assay IC50.

Where two headings read alike, the source gives them in different places.

Sequence of full-length human BTK (Q06187 whole entry): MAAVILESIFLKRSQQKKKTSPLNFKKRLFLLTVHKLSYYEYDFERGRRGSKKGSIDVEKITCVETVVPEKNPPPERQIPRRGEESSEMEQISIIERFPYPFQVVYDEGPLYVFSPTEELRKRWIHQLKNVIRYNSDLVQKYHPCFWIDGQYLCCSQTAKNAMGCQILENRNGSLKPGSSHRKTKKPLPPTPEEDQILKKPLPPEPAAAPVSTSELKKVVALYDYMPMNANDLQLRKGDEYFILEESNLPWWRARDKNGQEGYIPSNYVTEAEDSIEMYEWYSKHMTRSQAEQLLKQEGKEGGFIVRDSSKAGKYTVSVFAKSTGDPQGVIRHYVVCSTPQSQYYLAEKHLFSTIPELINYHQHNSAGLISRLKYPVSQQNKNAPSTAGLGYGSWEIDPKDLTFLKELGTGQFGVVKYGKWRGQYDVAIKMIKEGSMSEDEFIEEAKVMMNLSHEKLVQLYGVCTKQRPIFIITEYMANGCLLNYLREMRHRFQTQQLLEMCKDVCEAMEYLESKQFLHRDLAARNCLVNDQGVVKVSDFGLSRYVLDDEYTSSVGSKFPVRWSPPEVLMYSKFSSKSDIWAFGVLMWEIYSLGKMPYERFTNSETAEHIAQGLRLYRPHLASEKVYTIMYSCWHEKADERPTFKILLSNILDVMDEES
Sequence of BTK (Q06187 whole entry): as above

For `C=CC(=O)N1CC2(CC(Oc3ncnc(N)c3-c3ccc(Oc4ccccc4)cc3)C2)C1` [A120, 1-(6-((6-amino-5-(4-phenoxyphenyl)pyrimidin-4-yl)oxy)-2-azaspiro[3.3]heptan-2-yl) prop-2-en-1-one], the figures for the IC50 at full-length human BTK, on BTK (setting [1]) and in the test on PBMC were less than 100 nM, less than 1000 nM and less than 1000 nM, respectively.
As to `C=CC(=O)Nc1cccc(Nc2ncnc(N)c2-c2ccc(Oc3ccccc3)cc2)c1` [A3, N-(3-((6-amino-5-(4-phenoxyphenyl)pyrimidin-4-yl)amino)phenyl)acrylamide], the IC50 (commonly the point on the concentration scale where inhibition reaches its midpoint) at full-length human BTK is less than 100 nM; at BTK (setting [1]) it was less than 1000 nM; in the test on PBMC, less than 1000 nM.
In the case of `C=CC(=O)Nc1ccc(F)c(Oc2ncnc(N)c2-c2ccc(Oc3ccccc3)cc2)c1` [A246, N-(3-((6-amino-5-(4-phenoxyphenyl)pyrimidin-4-yl)oxy)-4-fluorophenyl)acrylamide], the IC50 at full-length human BTK is less than 100 nM; on BTK (setting [1]), less than 1000 nM; in the test on PBMC, less than 1000 nM.
For `CN(C)C/C=C/C(=O)N1CC2(CC(Oc3ncnc(N)c3-c3ccc(Oc4ccccc4)cc3)C2)C1` [A105, (E)-1-(6-((6-amino-5-(4-phenoxyphenyl)pyrimidin-4-yl)oxy)-2-azaspiro[3.3]heptan-2-yl)-4-(dimethylamino)but-2-en-1-one], the figures for the half-maximal inhibitory concentration (IC50) on full-length human BTK and in the test on PBMC were less than 100 nM and less than 1000 nM, respectively.
As for `C=CC(=O)N1CC2(CC(Oc3ncnc(N)c3-c3ccc(Oc4ccncc4)cc3)C2)C1` [A114, 1-(6-((6-amino-5-(4-(pyridin-4-yloxy)phenyl)pyrimidin-4-yl)oxy)-2-azaspiro[3.3]heptan-2-yl)prop-2-en-1-one], the half-maximal inhibitory concentration (IC50) at full-length human BTK was less than 100 nM; in the test on PBMC it was more than 1000 nM.
Regarding `CN(C)C/C=C/C(=O)Nc1cccc(Oc2ccnc(N)c2-c2ccc(Oc3ccccc3)cc2)c1` [A151, (E)-N-(3-((2-amino-3-(4-phenoxyphenyl)pyridin-4-yl)oxy)phenyl)-4-(dimethylamino)but-2-enamide], the figures for the IC50 on full-length human BTK and in the test with PBMC were less than 100 nM and more than 1000 nM, respectively.
For `C=CC(=O)Nc1cc(Oc2ncnc(N)c2-c2ccc(Oc3ccccc3)cc2)c(F)cc1F` [A251, N-(5-((6-amino-5-(4-phenoxyphenyl)pyrimidin-4-yl)oxy)-2,4-difluorophenyl)acrylamide], the half-maximal inhibitory concentration (IC50) at full-length human BTK is less than 100 nM; on BTK (setting [1]) it was less than 1000 nM; with PBMC, less than 1000 nM.
For `C=CC(=O)N[C@H]1C[C@@H](Nc2ncnc(N)c2-c2ccc(Oc3ccccc3)cc2)C1` [A118], the results for the concentration for half-maximal inhibition (IC50) on full-length human BTK and in the test on PBMC were less than 100 nM and less than 1000 nM, respectively.
As for `C=CC(=O)Nc1cccc(Oc2ncnc(N)c2-c2cnn(Cc3cccc(F)c3)c2)c1` [A67, N-(3-((6-amino-5-(1-(3-fluorobenzyl)-1H-pyrazol-4-yl)pyrimidin-4-yl)oxy)phenyl)acrylamide], the figures for the IC50 at full-length human BTK and in the test on PBMC were less than 100 nM and less than 1000 nM, respectively.
As to `C=CC(=O)N1CCC(CNc2ncnc(N)c2-c2ccc(Oc3ccccc3)cc2)(OC)CC1` [A121, 1-(4-(((6-amino-5-(4-phenoxyphenyl)pyrimidin-4-yl)amino)methyl)-4-methoxypiperidin-1-yl)prop-2-en-1-one], the 50% inhibitory concentration (IC50) at full-length human BTK is less than 100 nM; with PBMC it was less than 1000 nM.
With `C=CC(=O)Nc1cccc(Oc2ncnc(N)c2-c2ccc(C(=O)Nc3ccccc3)cc2)c1` [A258, 4-(4-(3-acrylamidophenoxy)-6-aminopyrimidin-5-yl)-N-phenylbenzamide], the half-inhibitory concentration (IC50) is less than 100 nM on full-length human BTK and more than 1000 nM in the test on PBMC.
In the case of `C=CC(=O)Nc1cccc(Oc2ncnc(N)c2-c2cnn(Cc3ccccc3)c2)c1` [A172, N-(3-((6-amino-5-(1-benzyl-1H-pyrazol-4-yl)pyrimidin-4-yl)oxy)phenyl)acrylamide], the concentration for half-maximal inhibition (IC50) on full-length human BTK is less than 100 nM; at BTK (setting [1]) it was less than 1000 nM; in the test on PBMC it was less than 1000 nM.
With `C=CC(=O)N1CCC(CNc2ncnc(N)c2-c2ccc(Oc3ccccc3)cc2)CC1` [Cpd. B, 1-(4-(((6-amino-5-(4-phenoxyphenyl)pyrimidin-4-yl)amino)methyl)piperidin-1-yl)prop-2-en-1-one], the disease activity result with NZB/W F1 mice is “reduces the disease activity in a dose-dependent manner”.
Turning to `C=CC(=O)N1CCCCC(Nc2ncnc(N)c2-c2ccc(Oc3ccccc3)cc2)C1` (centres unmarked) [A52, 1-(3-((6-amino-5-(4-phenoxyphenyl)pyrimidin-4-yl)amino)azepan-1-yl)prop-2-en-1-one], the half-maximal inhibitory concentration (IC50) at full-length human BTK was less than 100 nM; in the test with PBMC it was less than 1000 nM.
Regarding `C=CC(=O)Nc1cccc(-c2cnc(N)nc2Oc2ccc(Oc3ccccc3)cc2)c1` [A306, N-(3-(2-amino-4-(4-phenoxyphenoxy)pyrimidin-5-yl)phenyl)acrylamide], the IC50 at full-length human BTK was less than 100 nM; with PBMC, less than 1000 nM.
As for `C=CC(=O)Nc1cccc(-c2c(N)ncnc2Oc2ccc(Oc3ccccc3)cc2)c1` [A245, N-(3-(4-amino-6-(4-phenoxyphenoxy)pyrimidin-5-yl)phenyl)acrylamide], the figures for the concentration for half-maximal inhibition (IC50) at full-length human BTK and with PBMC were less than 100 nM and less than 1000 nM, respectively.
For `C#CC(=O)N[C@@H]1CCC[C@H](Nc2ncnc(N)c2-c2ccc(Oc3ccccc3)cc2)C1` (relative stereo) [A64, N-(cis-3-((6-amino-5-(4-phenoxyphenyl)pyrimidin-4-yl)amino)cyclohexyl)propiolamide] the same measures were less than 100 nM and less than 1000 nM.
In the case of `C=CC(=O)N1CCC2(CC(Nc3ncnc(N)c3-c3ccc(Oc4ccccc4)cc3)C2)C1` (centres unmarked) [A113, 1-(2-((6-amino-5-(4-phenoxyphenyl)pyrimidin-4-yl)amino)-6-azaspiro[3.4]octan-6-yl)prop-2-en-1-one], the figures for the IC50 at full-length human BTK and in the test on PBMC were less than 100 nM and less than 1000 nM, respectively.
Consider `C=CC(=O)N1C[C@H](Nc2ncnc(N)c2-c2ccc(Oc3ccccc3)cc2)[C@@H](O)C1` (relative stereo) [A75, 1-(trans-3-((6-amino-5-(4-phenoxyphenyl)pyrimidin-4-yl)amino)-4-hydroxypyrrolidin-1-yl)prop-2-en-1-one], for which the half-maximal inhibitory concentration (IC50) is less than 100 nM at full-length human BTK and less than 1000 nM in the test with PBMC.
On to `C=CC(=O)Nc1cccc(Nc2ncnc(N)c2-c2cnn(Cc3ccccc3)c2)c1` [A70, N-(3-((6-amino-5-(1-benzyl-1H-pyrazol-4-yl)pyrimidin-4-yl)amino)phenyl)acrylamide], for which the IC50 was less than 100 nM on full-length human BTK and less than 1000 nM in the test with PBMC.
Turning to `C=CC(=O)N1CCC(COc2ncncc2-c2ccc(Oc3ccccc3)cc2)CC1` [A6, 1-(4-(((5-(4-phenoxyphenyl)pyrimidin-4-yl)oxy)methyl)piperidin-1-yl)prop-2-en-1-one], the IC50 is less than 100 nM on full-length human BTK and less than 1000 nM in the test on PBMC.
In the same order, the values of `C#CC(=O)N1CCC2(CC(Nc3ncnc(N)c3-c3ccc(Oc4ccccc4)cc3)C2)C1` (centres unmarked) [A115, 1-(2-((6-amino-5-(4-phenoxyphenyl)pyrimidin-4-yl)amino)-6-azaspiro[3.4]octan-6-yl)prop-2-yn-1-one] are less than 100 nM and more than 1000 nM.
As to `C=CC(=O)N1C2CCC1CC(CNc1ncnc(N)c1-c1ccc(Oc3ccccc3)cc1)C2` (centres unmarked) [A48, 1-(3-(((6-amino-5-(4-phenoxyphenyl)pyrimidin-4-yl)amino)methyl)-8-azabicyclo[3.2.1]octan-8-yl)prop-2-en-1-one], the IC50 on full-length human BTK was less than 100 nM; against BTK it was more than 1000 nM.
